Data from patent US20060025430A1, “Novel irreversible inhibitors of epidermal growth factor receptor tyrosine kinase and uses thereof for therapy and diagnosis” (priority 2003, published 2006).

Tests used:
Type in all cases: cell-based
EGFR-TK = target: T1, EGFR-TK (Homo sapiens, UniProt P00533); experiment: EGFR-TK autophosphorylation inhibition in intact A431 cells (irreversibility assay, Western blot); conditions: inhibitor concentration at which 50% inhibition was achieved eight hours post incubation, intact A431 cells, eight hours post incubation
T1 construct: The supernatant, which contained the EGFR, was collected and frozen; endogenous in cells; host or cells: A431 cells (A1: Triton X-100 lysate captured on mAb108; A2: intact cells)
Method: A431 cells (5×10^5) were seeded in 6-well plates and grown for 24 hours to about 90% confluence in DMEM (high glucose) containing 10% fetal calf serum (FCS) and antibiotics at 37° C. The cells were then exposed to serum-free medium, at 37° C., for 18 hours.
[…] The medium was replaced thereafter with an inhibitor/FCS-free medium and the cells were divided into two groups: cells of the first group were immediately stimulated with EGF (20 ng/ml) for 5 minutes and then washed with PBS, while cells of the second group were incubated for additional 8 hours, at 37° C. During the 8 hours period, the medium was changed three times (after 2, 4 and 8 hours). After the post-incubation period, the cells of the second group were stimulated with EGF (20 ng/ml) for 5 minutes and then washed with PBS.
(§1) Identical protein amounts from each lysate sample were loaded onto polyacrylamide gel (6% or 10%), separated by electrophoresis (Hoefer Pharmacia Biotech Inc., San Francisco, USA) and transferred to nitrocellulose membrane (power supply: EPS 500/400, Amersham Pharmacia Biotech; nitrocellulose extra blotting membranes: Sartorius AG, Goettingen, Germany). A standard high molecular weight solution was loaded as a reference. For visualization of molecular weight bands, the membrane was immersed in Ponceau reagent (0.05% Ponceau, 5% acetic acid) for a few minutes, and then washed twice with TTN (10 mM Tris pH 7.4, 0.2% TWEEN 20, 170 mM NaCl) and once with water. The membrane was blocked overnight in TTN containing 5% milk (1% fat) (blocking TTN) and incubated for 90 minutes with PY20 antiphosphotyrosine antibody (Santa Cruz Biotechnology Inc., Santa Cruz, USA) diluted 1:2,000 in blocking TTN. The membrane was then washed with TTN (3×5 minutes), incubated for 90 minutes with a horseradish peroxidase-conjugated secondary antibody (Goat anti-mouse IgG H+L, Jackson ImResearch Laboratories, Inc., diluted 1:10,000 in blocking TTN), and finally washed again with TTN (3×5 minutes).
After the incubation, the media was replaced with inhibitor/FCS-free media and the inhibition effect was measured either immediately thereafter or after 8 hours post incubation.

PDGFR = PDGFR (Homo sapiens, UniProt P09619); experiment: Selective-inhibition assay in […] cells (receptor phosphotyrosine, Western blot); conditions: […] cells expressing PDGFR, 1 hour incubation, PDGFββ stimulation
Method: (§2) NIH3T3 cells transformed with either the EGFR (DHER14 cells), with the HER1-HER2 chimera (CSH12 cells) or with the PDGFR (NIH/PDGFR cells), decribed by Lee et al.; 1989, Honegger et al., 1988; and Shawver et al. 1997, and A431 human epidermoid vulval carcinoma cells were grown in Dulbecco's modified Eagle's medium (DMEM) (Biological industries, Kibbuts Beit Haemek, Israel) supplemented with 10% fetal calf serum and antibiotics (penicillin […], streptomycin 100 mg/liter) at 37° C. in 5% CO2.
(§3) Selective-inhibition assay: CSH12, DHER14 and […] cells, expressing either the HER1-HER2 chimera, EGFR or PDGFR, respectively, were used for the determination of inhibitory selectivity. Cells (7.5×10^4) were grown in 6-well plates (35 mm diameter, Nalge Nunc) for 24 hours and then incubated in 0.25% FCS-containing medium for an additional 24 hours to about 90% confluence. Duplicate sets of cells were treated with the tested compounds at varying concentrations for 1 hour. The final concentration of the vehicle in the medium was 0.05% DMSO, 0.1% EtOH. After removal of the inhibitor from the medium, PBS wash (×2) and addition of 0.25% serum-containing medium to the wells, the cells were stimulated with either 20 ng/mL human EGF for 5 minutes (CSH12 and DHER14 cells) or 50 ng/ml human PDGFββ for 10 minutes ([…] cells) at 37° C. […]

HER1-HER2 chimera = target: T2, HER1-HER2 chimera (Homo sapiens, UniProt P04626); experiment: Selective-inhibition assay in CSH12 cells (receptor phosphotyrosine, Western blot); conditions: CSH12 cells expressing HER1-HER2 chimera, 1 hour incubation, EGF stimulation
T2 construct: HER2 cytoplasmic domain generates normal mitogenic and transforming signals in a chimeric receptor; expressed in transfected cells; host or cells: NIH3T3 (CSH12 cells); the other entry of the earlier key: EGFR (P00533, Epidermal growth factor receptor)
From the text: as §1

EGFR = target: T3, EGFR (Homo sapiens, UniProt P00533); experiment: Selective-inhibition assay in DHER14 cells (receptor phosphotyrosine, Western blot); conditions: DHER14 cells expressing EGFR, 1 hour incubation, EGF stimulation
T3 construct: expressed in transfected cells; host or cells: NIH3T3 (DHER14 cells)
Method: as §2, §3

PDGFR, sequence (P09619 whole entry): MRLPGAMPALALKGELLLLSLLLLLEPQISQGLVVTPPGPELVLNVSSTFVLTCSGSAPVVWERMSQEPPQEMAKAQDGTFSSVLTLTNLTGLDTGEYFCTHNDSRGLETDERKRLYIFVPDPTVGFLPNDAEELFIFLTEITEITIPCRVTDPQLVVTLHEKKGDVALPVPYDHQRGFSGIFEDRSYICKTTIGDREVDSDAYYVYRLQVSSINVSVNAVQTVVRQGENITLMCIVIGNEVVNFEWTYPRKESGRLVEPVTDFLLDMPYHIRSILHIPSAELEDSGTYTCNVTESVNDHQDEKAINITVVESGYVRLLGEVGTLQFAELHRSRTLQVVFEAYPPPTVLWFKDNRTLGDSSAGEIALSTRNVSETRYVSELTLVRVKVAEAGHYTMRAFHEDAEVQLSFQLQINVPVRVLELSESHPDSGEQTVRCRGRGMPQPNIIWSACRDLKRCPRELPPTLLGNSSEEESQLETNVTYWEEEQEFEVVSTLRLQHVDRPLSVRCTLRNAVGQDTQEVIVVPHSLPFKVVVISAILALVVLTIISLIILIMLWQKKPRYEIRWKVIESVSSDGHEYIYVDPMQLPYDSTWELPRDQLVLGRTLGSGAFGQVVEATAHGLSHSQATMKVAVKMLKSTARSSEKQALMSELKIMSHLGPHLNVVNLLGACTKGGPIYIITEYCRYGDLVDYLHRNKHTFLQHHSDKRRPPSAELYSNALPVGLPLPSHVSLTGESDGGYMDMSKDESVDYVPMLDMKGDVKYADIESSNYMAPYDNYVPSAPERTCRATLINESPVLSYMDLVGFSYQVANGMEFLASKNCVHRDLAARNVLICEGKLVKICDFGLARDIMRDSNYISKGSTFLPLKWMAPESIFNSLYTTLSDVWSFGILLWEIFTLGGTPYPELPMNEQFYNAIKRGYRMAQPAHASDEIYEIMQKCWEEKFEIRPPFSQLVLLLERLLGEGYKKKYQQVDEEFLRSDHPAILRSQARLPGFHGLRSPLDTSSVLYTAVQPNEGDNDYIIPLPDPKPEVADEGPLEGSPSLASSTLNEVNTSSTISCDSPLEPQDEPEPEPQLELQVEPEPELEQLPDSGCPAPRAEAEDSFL
T3 sequence (P00533 25-1210): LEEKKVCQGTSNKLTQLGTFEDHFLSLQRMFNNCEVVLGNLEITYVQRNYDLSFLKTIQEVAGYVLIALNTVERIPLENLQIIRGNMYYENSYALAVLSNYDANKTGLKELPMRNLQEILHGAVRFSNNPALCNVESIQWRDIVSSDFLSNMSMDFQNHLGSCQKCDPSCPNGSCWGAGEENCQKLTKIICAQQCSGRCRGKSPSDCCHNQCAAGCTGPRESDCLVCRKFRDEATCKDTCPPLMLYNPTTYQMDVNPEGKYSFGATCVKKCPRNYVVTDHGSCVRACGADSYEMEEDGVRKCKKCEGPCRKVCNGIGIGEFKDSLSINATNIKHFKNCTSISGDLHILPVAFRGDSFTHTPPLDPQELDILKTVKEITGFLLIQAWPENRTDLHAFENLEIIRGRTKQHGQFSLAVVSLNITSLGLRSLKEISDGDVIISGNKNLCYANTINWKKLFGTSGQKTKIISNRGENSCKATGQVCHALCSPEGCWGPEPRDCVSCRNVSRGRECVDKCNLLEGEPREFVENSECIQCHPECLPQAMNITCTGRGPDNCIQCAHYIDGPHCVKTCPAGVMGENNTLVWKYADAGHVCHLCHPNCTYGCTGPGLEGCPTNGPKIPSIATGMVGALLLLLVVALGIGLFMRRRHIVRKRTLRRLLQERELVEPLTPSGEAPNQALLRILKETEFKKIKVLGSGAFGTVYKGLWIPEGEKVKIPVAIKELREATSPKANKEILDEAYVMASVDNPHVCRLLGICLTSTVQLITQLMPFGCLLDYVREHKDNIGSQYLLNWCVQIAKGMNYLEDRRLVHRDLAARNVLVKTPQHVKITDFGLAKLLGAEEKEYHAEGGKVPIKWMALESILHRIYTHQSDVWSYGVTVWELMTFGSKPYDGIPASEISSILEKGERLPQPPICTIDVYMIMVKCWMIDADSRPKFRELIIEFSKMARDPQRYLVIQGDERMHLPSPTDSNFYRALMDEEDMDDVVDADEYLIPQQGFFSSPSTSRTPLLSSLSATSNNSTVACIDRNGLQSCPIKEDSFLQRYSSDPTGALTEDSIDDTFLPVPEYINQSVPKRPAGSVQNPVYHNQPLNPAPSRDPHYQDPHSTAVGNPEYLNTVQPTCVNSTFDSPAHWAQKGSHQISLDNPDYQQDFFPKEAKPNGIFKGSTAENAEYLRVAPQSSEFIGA
T1 sequence (P00533 25-1210): as above
T2 sequence (P04626 with tags, fused parts or gaps): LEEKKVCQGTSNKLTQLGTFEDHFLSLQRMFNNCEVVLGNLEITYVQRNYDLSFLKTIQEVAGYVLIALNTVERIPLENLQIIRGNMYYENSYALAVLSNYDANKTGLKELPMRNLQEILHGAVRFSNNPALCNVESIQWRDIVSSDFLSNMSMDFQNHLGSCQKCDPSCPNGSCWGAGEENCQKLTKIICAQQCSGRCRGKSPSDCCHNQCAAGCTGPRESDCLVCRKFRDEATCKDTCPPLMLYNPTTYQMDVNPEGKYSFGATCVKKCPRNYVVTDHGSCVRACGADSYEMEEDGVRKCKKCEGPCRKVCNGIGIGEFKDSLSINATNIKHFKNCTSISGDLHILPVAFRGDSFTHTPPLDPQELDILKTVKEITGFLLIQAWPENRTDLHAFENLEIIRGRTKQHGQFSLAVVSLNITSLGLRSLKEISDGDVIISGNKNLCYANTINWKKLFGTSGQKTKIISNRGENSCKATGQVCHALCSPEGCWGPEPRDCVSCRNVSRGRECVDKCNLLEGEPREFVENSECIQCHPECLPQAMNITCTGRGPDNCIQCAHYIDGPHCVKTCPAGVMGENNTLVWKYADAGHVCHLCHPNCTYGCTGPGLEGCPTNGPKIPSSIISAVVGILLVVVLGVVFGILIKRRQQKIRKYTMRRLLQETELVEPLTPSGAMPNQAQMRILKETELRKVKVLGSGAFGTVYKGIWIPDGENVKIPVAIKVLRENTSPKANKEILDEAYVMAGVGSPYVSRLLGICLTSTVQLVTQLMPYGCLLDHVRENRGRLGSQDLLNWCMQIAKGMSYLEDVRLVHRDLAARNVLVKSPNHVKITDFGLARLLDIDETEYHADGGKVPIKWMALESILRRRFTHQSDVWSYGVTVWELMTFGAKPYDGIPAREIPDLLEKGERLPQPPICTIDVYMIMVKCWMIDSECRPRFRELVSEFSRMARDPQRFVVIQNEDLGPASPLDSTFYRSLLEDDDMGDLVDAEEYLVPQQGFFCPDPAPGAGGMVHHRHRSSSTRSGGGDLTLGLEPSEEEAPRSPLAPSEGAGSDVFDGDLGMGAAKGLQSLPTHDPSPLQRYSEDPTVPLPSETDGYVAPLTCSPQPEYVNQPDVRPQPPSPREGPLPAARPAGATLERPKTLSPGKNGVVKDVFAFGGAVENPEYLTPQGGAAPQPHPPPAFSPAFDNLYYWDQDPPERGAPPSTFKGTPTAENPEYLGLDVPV

`O=C(CCl)Nc1ccc2ncnc(Nc3cc(Cl)c(Cl)cc3F)c2c1` [Compound 5, N-{4-[(4,5-Dichloro-2-fluoro-phenyl)amino]-quinazolin-6-yl}-2-chloroacetamide] gave an IC50 (EGFR-TK) of 10 to 50 nM, an IC50 (PDGFR) greater than 1000 nM and an IC50 (HER1-HER2 chimera) of 25 to 50 nM. It also gave an IC50 (EGFR) of 5 to 15 nM.
